The target of assay [1] is T1, Orai1/STIM1 (Homo sapiens, UniProt Q96D31).
T1 construct: expressed in transfected cells; host or cells: HEK-293
The experiment in a line: Fluorescence-based assay of store-operated calcium entry in Orai1/STIM1 stable cells. Format: cell-based. To be noted: Table iii; HEK-293 cells stably expressing human STIM1 and Orai1; 50% inhibition of Peak-Basal fluo-4 signal; read-out: Orai1/STIM1 (IC50, μmol). The protocol: A. Fluorescence-based Assay of Store-Operated Calcium Entry in Orai1/STIM1 Stable Cells.
Cells stably expressing recombinant human STIM1 and Orai1 are generated by transfecting a human Orai1 expression plasmid (pcDNA3.1-Orai1-cmyc) into HEK-293 cells stably overexpressing human STIM1 (Roos et al. 2005 JCB 169(3): 435-445). Colonies of cells stably expressing both STIM1 and Orai1 proteins are selected and then subcloned by limiting dilution. Cells were cultured at 37° C./6% CO2 in complete medium with 10% FBS and appropriate selection markers.
The day prior to performing the assay Orai1/STIM1 stable cells are plated in 50 μL of complete medium at 90-95% confluence in a 384 well plate. Cells are grown at 37° C./6% CO2 overnight. On the day of the assay, 1.5 μM fluo-4-AM (Invitrogen) in complete medium is added to the cells, which are then incubated for 1 hour at RT. Cells are washed once in Ca^2+-free HBSS (Hank's buffered saline solution) and 35 μl of Ca^2+-free HBSS is added to each well. Test compounds are added to wells in a 10 μL Ca^2+-free HBSS solution, prepared at 4.5× the desired final concentration, and incubated for 30 minutes at RT. The initial baseline fluorescence signal is then measured with a FLIPR^384 (Molecular Devices) plate reader. Calcium entry is initiated by adding 5 μl of 10× CaCl2 (10 mM) in HBSS, and changes in cellular fluorescence are measured with the FLIPR^384 plate reader. In each well, the magnitude of the fluorescence signal as a result of calcium entry into the cell is determined by calculating the difference between the peak fluorescence signal measured after calcium addition and the initial baseline fluorescence signal (designated Peak-Basal). IC50 values are typically calculated as the concentration that inhibited 50% of the Peak-Basal signal (Table A).

For assay [2], the system named is RBL-2H3 cells. As to the kind of experiment: Fluorescence-based assay of store-operated calcium entry in RBL-2H3 cells. The class given is cell-based, rat. Conditions: Rattus norvegicus, RBL-2H3; Table iii; thapsigargin store depletion; 50% inhibition of Upslope; read-out: RBL-2H3 (IC50, μmol). The protocol: B. Fluorescence-based Assay of Store-Operated Calcium Entry in RBL-2H3Cells.
RBL-2H3 cells are obtained from ATCC and maintained in complete medium with 10% FBS at 37° C./6% CO2.
The day prior to performing the assay, RBL-2H3 cells are plated in 50 μL of complete medium in a 384 well plate. Cells are grown at 37° C./6% CO2 overnight and grow to 50-60% confluence by the next day. On the assay day, 1.5 μM Fluo-4-AM dye (Invitrogen) in complete medium is added and incubated for 1 hour at RT. Cells are washed twice in Ca^2+-free HBSS buffer and 35 μL Ca^2+-free HBSS buffer is added to each well. 10 μL of a test compound prepared in a Ca^2+-free HBSS solution at 4.5× of the desired concentration is added to a well and incubated for 5 minutes at RT. 10 μL of thapsigargin prepared in a Ca^2+-free HBSS solution at 5.5× of the desired concentration (5.5 uM) is added to each well and incubated for an additional 25 minutes. The initial baseline fluorescence signal is measured with a FLIPR^384 (Molecular Devices) plate reader. 5 μL of 12× calcium in HBSS (12 mM) is added and changes in cellular fluorescence are measured with the FLIPR^384 plate reader. In each well, the change in the fluorescent signal as a function of time due to calcium entry into the cell is determined by calculating the difference between the fluorescent signal measured 7 seconds after calcium addition and the initial baseline fluorescence signal at time zero (t=0). This parameter is designated Upslope. The IC50 value is calculated as the concentration at which 50% of the Upslope is inhibited.

Bounds are passed on as bounds.

T1 sequence (Q96D31 whole entry): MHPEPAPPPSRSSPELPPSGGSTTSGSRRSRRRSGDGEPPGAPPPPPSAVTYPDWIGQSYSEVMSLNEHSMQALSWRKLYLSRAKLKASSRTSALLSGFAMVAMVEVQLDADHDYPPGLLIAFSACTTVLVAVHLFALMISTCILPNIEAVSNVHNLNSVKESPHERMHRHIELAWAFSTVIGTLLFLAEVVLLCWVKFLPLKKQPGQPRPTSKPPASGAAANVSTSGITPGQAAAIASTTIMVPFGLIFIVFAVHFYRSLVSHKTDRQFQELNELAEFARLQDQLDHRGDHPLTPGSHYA

Turning to `Cn1nc(C(F)(F)F)cc1-c1ccc(NCc2c(F)cccc2F)cc1F`, the IC50 in assay [1] and in assay [2] was less than 0.6 µM each time.

For the molecule `Cn1nc(C(F)(F)F)cc1-c1ccc(NCc2ccccc2F)cc1F`, the IC50 in assay [1] and in assay [2] was less than 0.6 µM in each case.

With `Cc1cccc(F)c1CNc1ccc(-c2cc(C(F)(F)F)nn2C)c(F)c1`, the IC50 in assay [1] and in assay [2] was less than 0.6 µM throughout.

For `Cn1nc(C(F)(F)F)cc1-c1ccc(NCc2c(F)cc(F)cc2F)cc1F`, the IC50 in assay [1] and in assay [2] was less than 0.6 µM throughout.

As for `Cn1nc(C(F)(F)F)cc1-c1ccc(NCc2ccncc2F)cc1F`, the IC50 in assay [1] and in assay [2] was less than 0.6 µM in each case.

Regarding `Cn1nc(C(F)(F)F)cc1-c1ccc(NCc2cncc(F)c2)cc1F`, the IC50 was 0.6 to 1.2 µM in assay [1] and less than 0.6 µM in assay [2].

In the case of `Cc1cnccc1CNc1ccc(-c2cc(C(F)(F)F)nn2C)c(F)c1`, the IC50 in assay [1] is 0.6 to 1.2 µM; in assay [2], less than 0.6 µM.

`Cc1nnsc1CNc1ccc(-c2cc(C(F)(F)F)nn2C)c(F)c1`: the results for the IC50 in assay [1] and in assay [2] were greater than 1.2 µM and 0.6 to 1.2 µM, respectively.

As to `Cn1nc(C(F)(F)F)cc1-c1ccc(NCc2c(F)cccc2F)c(F)c1`, the IC50 in assay [1] and in assay [2] was less than 0.6 µM in each case.

Turning to `Cn1nc(C(F)(F)F)cc1-c1ccc(NCc2ccccc2F)c(F)c1`, the IC50 is 0.6 to 1.2 µM in assay [1] and greater than 1.2 µM in assay [2].

Take `Cn1nc(C(F)(F)F)cc1-c1ccc(NCc2c(F)cncc2F)c(F)c1`: the IC50 in assay [1] was 0.6 to 1.2 µM; in assay [2], less than 0.6 µM.

With `Cn1nc(C(F)(F)F)cc1-c1c(F)cc(NCc2c(F)cccc2F)cc1F`, the IC50 in assay [1] is 0.6 to 1.2 µM; in assay [2] it was less than 0.6 µM.

For `Cn1nc(C(F)(F)F)cc1-c1ccc(NCc2c(F)cccc2F)cc1`, the IC50 in assay [1] and in assay [2] was less than 0.6 µM in each case.

`Cn1nc(C(F)(F)F)cc1-c1ccc(NCc2ccccc2F)cc1`: the IC50 in assay [1] and in assay [2] was less than 0.6 µM each time.

For `Cn1nc(C(F)(F)F)cc1-c1ccc(NCc2ccc(F)cc2F)cc1`, the IC50 in assay [1] and in assay [2] was less than 0.6 µM throughout.

For the molecule `Cn1nc(C(F)(F)F)cc1-c1ccc(NCc2c(F)cncc2F)cc1`, the IC50 in assay [1] and in assay [2] was less than 0.6 µM in each case.

For the molecule `Fc1cccc(F)c1CNc1ccc(-n2nc(C(F)(F)F)cc2C(F)(F)F)cc1`, the IC50 in assay [1] is 0.6 to 1.2 µM; in assay [2] it was less than 0.6 µM.

In the case of `Fc1ccccc1CNc1ccc(-n2nc(C(F)(F)F)cc2C(F)(F)F)cc1`, the IC50 in assay [1] and in assay [2] was less than 0.6 µM in each case.

Turning to `Fc1cnccc1CNc1ccc(-n2nc(C(F)(F)F)cc2C(F)(F)F)cc1`, the values for the IC50 in assay [1] and in assay [2] were 0.6 to 1.2 µM and less than 0.6 µM, respectively.

With `Fc1cncc(F)c1CNc1ccc(-n2nc(C(F)(F)F)cc2C(F)(F)F)cc1`, the values for the IC50 in assay [1] and in assay [2] were 0.6 to 1.2 µM and less than 0.6 µM, respectively.

In the case of `Cc1cc2c(cc1-c1ccc(NCc3c(F)cccc3F)cc1)OC(F)(F)O2`, the IC50 in assay [1] is greater than 1.2 µM; in assay [2], less than 0.6 µM.

`Cc1cc2c(cc1-c1ccc(NCc3ccccc3F)cc1)OC(F)(F)O2`: the IC50 in assay [1] was greater than 1.2 µM; in assay [2], less than 0.6 µM.

With `Cc1cc2c(cc1-c1ccc(NCc3c(F)cncc3F)cc1)OC(F)(F)O2`, the IC50 in assay [1] and in assay [2] was less than 0.6 µM throughout.

As for `Cc1cc2c(cc1-c1ccc(NCc3ccncc3F)cc1)OC(F)(F)O2`, the figures for the IC50 in assay [1] and in assay [2] were 0.6 to 1.2 µM and less than 0.6 µM, respectively.

Consider `Cc1cc2c(cc1-c1ccc(NCc3cncc(F)c3)cc1)OC(F)(F)O2`, for which the values for the IC50 in assay [1] and in assay [2] were 0.6 to 1.2 µM and less than 0.6 µM, respectively.

Regarding `Cc1cc2c(cc1-c1ccc(NCc3snnc3F)cc1)OC(F)(F)O2`, the IC50 is 0.6 to 1.2 µM in assay [1] and less than 0.6 µM in assay [2].

On to `Cc1cc2c(cc1-c1ccc(NCc3c(F)cccc3F)cc1F)OC(F)(F)O2`, for which the IC50 was greater than 1.2 µM in assay [1] and less than 0.6 µM in assay [2].

For the molecule `Cc1cc2c(cc1-c1ccc(NCc3ccccc3F)cc1F)OC(F)(F)O2`, the IC50 in assay [1] is greater than 1.2 µM; in assay [2], less than 0.6 µM.

As to `Cc1cc2c(cc1-c1ccc(NCc3c(F)cncc3F)cc1F)OC(F)(F)O2`, the figures for the IC50 in assay [1] and in assay [2] were 0.6 to 1.2 µM and less than 0.6 µM, respectively.

Regarding `Cn1nc(C(F)(F)F)cc1-c1ccc(NCc2c(F)ccc(F)c2F)cc1F`, the IC50 in assay [1] and in assay [2] was less than 0.6 µM in each case.

With `Cc1ccccc1CNc1ccc(-c2cc(C(F)(F)F)nn2C)c(F)c1`, the IC50 in assay [1] and in assay [2] was less than 0.6 µM in each case.

Consider `Cn1nc(C(F)(F)F)cc1-c1ccc(NCc2c(F)cc(F)cc2F)cc1`, for which the IC50 in assay [1] and in assay [2] was less than 0.6 µM throughout.

Take `Cn1nc(C(F)(F)F)cc1-c1ccc(NCc2c(F)ccc(F)c2F)cc1`: the IC50 in assay [1] and in assay [2] was less than 0.6 µM each time.

As to `Cn1nc(C(F)(F)F)cc1-c1ccc(NCc2c(Cl)cnn2C)cc1`, the values for the IC50 in assay [1] and in assay [2] were 0.6 to 1.2 µM and less than 0.6 µM, respectively.

For `Cc1cc(C(F)(F)F)nn1-c1ccc(NCc2ccccc2F)cc1`, the IC50 in assay [1] and in assay [2] was less than 0.6 µM each time.

Regarding `Cc1cc(C(F)(F)F)nn1-c1ccc(NCc2c(F)cccc2F)cc1`, the IC50 in assay [1] and in assay [2] was less than 0.6 µM throughout.

Take `Cc1cc(C(F)(F)F)nn1-c1ccc(NCc2ccc(F)cc2F)cc1`: the IC50 in assay [1] is 0.6 to 1.2 µM; in assay [2] it was less than 0.6 µM.

For the molecule `Cc1cc(C(F)(F)F)nn1-c1ccc(NCc2c(F)cncc2F)cc1`, the values for the IC50 in assay [1] and in assay [2] were 0.6 to 1.2 µM and less than 0.6 µM, respectively.

For the molecule `Cc1cc(C(F)(F)F)nn1-c1ccc(NCc2c(F)ccc(F)c2F)cc1`, the IC50 in assay [1] and in assay [2] was less than 0.6 µM in each case.

With `Cc1cc(C(F)(F)F)nn1-c1ccc(NCc2c(F)cc(F)cc2F)cc1`, the IC50 in assay [1] and in assay [2] was less than 0.6 µM each time.

With `Cc1nc(C(F)(F)F)cn1-c1ccc(NCc2ccccc2F)cc1F`, the IC50 in assay [1] and in assay [2] was less than 0.6 µM throughout.

With `Cc1nc(C(F)(F)F)cn1-c1ccc(NCc2c(F)cccc2F)cc1F`, the IC50 in assay [1] and in assay [2] was less than 0.6 µM each time.

As for `Cc1sc(C(F)(F)F)nc1-c1ccc(NCc2ccccc2F)cc1`, the IC50 in assay [1] and in assay [2] was less than 0.6 µM in each case.

Consider `Cc1cccc(F)c1CNc1ccc(-c2nc(C(F)(F)F)sc2C)cc1`, for which the IC50 in assay [1] is 0.6 to 1.2 µM; in assay [2] it was less than 0.6 µM.

On to `Cc1sc(C(F)(F)F)nc1-c1ccc(NCc2c(F)cccc2F)cc1`, for which the IC50 in assay [1] and in assay [2] was less than 0.6 µM throughout.

Consider `Cc1sc(C(F)(F)F)nc1-c1ccc(NCc2c(F)cc(F)cc2F)cc1`, for which the IC50 in assay [1] and in assay [2] was less than 0.6 µM each time.

As for `Cc1cc(F)ccc1CNc1ccc(-c2cc(C(F)(F)F)nn2C)c(F)c1`, the IC50 in assay [1] and in assay [2] was less than 0.6 µM throughout.

For the molecule `Cc1cc(F)ccc1CNc1ccc(-n2nc(C(F)(F)F)cc2C)c(F)c1`, the IC50 in assay [1] is 0.6 to 1.2 µM; in assay [2] it was less than 0.6 µM.

`Cc1cc(F)ccc1CNc1ccc(-n2cc(C(F)(F)F)nc2C)c(F)c1`: the IC50 in assay [1] was greater than 1.2 µM; in assay [2], less than 0.6 µM.

For `Cc1cc(F)ccc1CNc1ccc(-c2cc(C(F)F)nn2C)c(F)c1`, the IC50 in assay [1] was 0.6 to 1.2 µM; in assay [2], less than 0.6 µM.

For the molecule `CCn1nc(C(F)(F)F)cc1-c1ccc(NCc2c(F)cc(F)cc2F)cc1F`, the IC50 in assay [1] is 0.6 to 1.2 µM; in assay [2] it was less than 0.6 µM.

The values above are taken from patent US20140256771A1, “COMPOUNDS THAT MODULATE INTRACELLULAR CALCIUM” (CalciMedica, Inc., priority 2011, published 2014).
